From US8530492B2, “Oligomer-protein tyrosine kinase inhibitor conjugates” (Nektar Therapeutics, priority 2009, dated 2013)

System: Caco-2 cells
Assay: Caco-2 permeability (bi-directional; pH 7.4/pH 7.4)
Assay type: in vitro ADME, human
Conditions: Caco-2, 10 μM, 120 minutes
Method: Caco-2 cells are used as an in vitro model of the human intestinal epithelium and permit assessment of the intestinal permeability of potential drugs. Test compound is added to either the apical or basolateral side of a confluent monolayer of Caco-2 cells and permeability is measured by monitoring the appearance of the test compound on the opposite side of the membrane using LC-MS/MS. Apparent permeability (Papp) coefficients, efflux ratio for the test compound and recovery values were determined.
To measure the permeability of test compound in the apical to basolateral (A-B) and basolateral to apical (B-A) direction across Caco-2 cells.
Caco-2 cells obtained from the ATCC are used between passage numbers 40-60. Cells are seeded on to Millipore Multiscreen Caco-2 plates at 1×10^5 cells/cm^2. They are cultured for 20 days in DMEM and media is changed every two or three days. On day 20 the permeability study is performed.
On day 20, the monolayers are prepared by rinsing both basolateral and apical surfaces twice with HBSS at 37° C. Cells are then incubated with HBSS in both apical and basolateral compartments for 40 min to stabilize physiological parameters. HBSS is then removed from the apical compartment and replaced with test compound dosing solutions. […] The fluorescent integrity marker lucifer yellow is also included in the dosing solution. Analytical standards are made from dosing solutions. The apical compartment inserts are then placed into ‘companion’ plates containing fresh HBSS. For basolateral to apical (B-A) permeability determination the experiment is initiated by replacing buffer in the inserts then placing them in companion plates containing dosing solutions. At 120 minutes the companion plate is removed and apical and basolateral samples diluted for analysis by LC-MS/MS. Test compound permeability was assessed in duplicate. On each plate, compounds of known permeability characteristics were run as controls.
Test and control compounds were quantified by LC-MS/MS cassette analysis using a 5-point calibration with appropriate dilution of the samples. Cyprotex generic analytical conditions were used. The starting concentration (C0) and experimental recovery were calculated from both apical and basolateral compartment concentrations.
The integrity of the monolayers throughout the experiment was checked by monitoring lucifer yellow permeation using fluorimetric analysis. Lucifer yellow permeation is low if monolayers have not been damaged. […] If lucifer yellow Papp values are above QC limits in both replicate wells for a test compound, the compound was re-tested.
Data Analysis: The permeability coefficient for each compound (Papp) is calculated from the following equation:
[formula] wherein dQ/dt is the rate of permeation of the drug across the cells, C0 is the donor compartment concentration at time zero and A is the area of the cell monolayer. C0 is obtained from analysis of donor and receiver compartments at the end of the incubation period. It is assumed that all of the test compound measured after 120 minutes incubation was initially present in the donor compartment at 0 minutes. An efflux ratio (ER) is derived as follows:
Talinolol (a known P-gp substrate) is also included as a control compound to assess whether functional P-gp is present in the Caco-2 cell monolayer.

SMILES	Permeability (apparent permeability, Papp (A-B))
COCCOCCOCCOCCOCCN1CCN(Cc2ccc(C(=O)Nc3ccc(C)c(Nc4nccc(-c5cccnc5)n4)c3)cc2)CC1 [mPEG5-N′-Imatinib]	1 ± 0.2 ×10⁻⁶ cm/s
COCCOCCOCCOCCOCCOCCOCCOCCOCCNCc1ccc(C(=O)Nc2ccc(C)c(Nc3nccc(-c4cccnc4)n3)c2)cc1 [mPEG9-N-Imatinib]	0.01 ± 0.004 ×10⁻⁶ cm/s
COCCOCCOCCOCCOCCOCCOCCN1CCN(Cc2ccc(C(=O)Nc3ccc(C)c(Nc4nccc(-c5cccnc5)n4)c3)cc2)CC1 [mPEG7-N′-Imatinib]	0.3 ± 0.01 ×10⁻⁶ cm/s
COCCOCCOCCOCCOCCOCCOCCOCCOCCN1CCN(Cc2ccc(C(=O)Nc3ccc(C)c(Nc4nccc(-c5cccnc5)n4)c3)cc2)CC1 [mPEG9-N′-Imatinib]	0.05 ± 0.02 ×10⁻⁶ cm/s

The remaining lines, values ahead:

Permeability (apparent permeability, Papp (A-B))	SMILES
4 ± 0.8 ×10⁻⁶ cm/s	COCCOCCOCCN1CCN(Cc2ccc(C(=O)Nc3ccc(C)c(Nc4nccc(-c5cccnc5)n4)c3)cc2)CC1 [mPEG3-N′-Imatinib]
0.05 ± 0.02 ×10⁻⁶ cm/s	COCCOCCOCCOCCOCCNCc1ccc(C(=O)Nc2ccc(C)c(Nc3nccc(-c4cccnc4)n3)c2)cc1 [mPEG5-N-Imatinib]
0.04 ± 0.01 ×10⁻⁶ cm/s	COCCOCCOCCOCCOCCOCCOCCNCc1ccc(C(=O)Nc2ccc(C)c(Nc3nccc(-c4cccnc4)n3)c2)cc1
0.6 ± 0.07 ×10⁻⁶ cm/s	COCCOCCOCCNCc1ccc(C(=O)Nc2ccc(C)c(Nc3nccc(-c4cccnc4)n3)c2)cc1 [mPEG3-N-Imatinib]
